The record followed here is ChEMBL document CHEMBL2040548, “Anti-influenza virus activities of 4-substituted 2,4-dioxobutanoic acid inhibitors” (Antimicrob Agents Chemother, 1996).

Structures are written as SMILES.

The target of assay [1] is Polymerase acidic protein (Influenza A virus (A/Puerto Rico/8/1934(H1N1)), UniProt P03433). In words: Inhibition of cap 1 ALMV primed Influenza transcriptase.
For assay [2], the target named is Polymerase acidic protein (Influenza A virus (strain A/Hong Kong/1/1968 H3N2)) (UniProt Q91MA9). In words: Upper respiratory tract challenge. Format: functional, organism-based. Conditions: Mus musculus.

As a reminder, the IC50 is the concentration needed to halve the response being measured. Higher therefore signals lower potency. As for `O=C(O)/C(O)=C/C(=O)C1(Cc2ccc(Cl)cc2)CCN(Cc2ccc(Cl)cc2)CC1`, in assay [1], the IC50 came to 540 nM.
The molecule `CC(=O)N[C@@H]1[C@@H](NC(=N)N)C=C(C(=O)O)O[C@@]1(C)[C@H](O)[C@H](O)CO` came in with a Log10 reduction in assay [2] of 4.3.
